From the NIST ThermoML archive (doi:10.1016/j.jct.2005.09.003)

Assay: xn = mol fraction of the nth substance listed
Details: Liquid

CCCCCCCl [1-chlorohexane] + CCCCCCCC
mass density [kg/m3]
Details	x2 = 0	x2 = 0.1016	x2 = 0.1996	x2 = 0.3153	x2 = 0.3948	x2 = 0.4862	x2 = 0.5938	x2 = 0.6966	x2 = 0.794	x2 = 0.9001
308.15 K, 39620 kPa	–	–	–	–	–	–	–	–	–	735.19
318.15 K, 100 kPa	854.58	834.04	814.96	793.28	778.92	762.93	744.78	728.11	712.89	696.93
318.15 K, 2130 kPa	856.27	835.95	816.81	795.21	780.76	764.83	746.83	730.05	714.94	698.9
318.15 K, 4150 kPa	858.19	837.89	818.74	797.18	782.71	766.77	748.78	732.01	716.9	700.85
318.15 K, 6180 kPa	860.06	839.78	820.64	799.07	784.6	768.67	750.71	733.92	718.79	702.75
318.15 K, 8210 kPa	861.91	841.62	822.49	800.94	786.48	770.55	752.56	735.77	720.67	704.6
318.15 K, 10230 kPa	863.73	843.46	824.34	802.79	788.32	772.38	754.41	737.61	722.49	706.41
318.15 K, 11250 kPa	864.62	844.35	825.23	803.67	789.21	773.28	755.31	738.5	723.39	707.3
318.15 K, 12260 kPa	865.5	845.27	826.11	804.57	790.11	774.2	756.2	739.4	724.3	708.21
318.15 K, 14290 kPa	867.28	847.01	827.89	806.35	791.88	775.94	757.98	741.15	726.04	709.95
318.15 K, 16310 kPa	869	848.75	829.61	808.09	793.61	777.66	759.69	742.89	727.75	711.66
318.15 K, 18340 kPa	870.66	850.43	831.3	809.76	795.29	779.35	761.37	744.57	729.42	713.3
318.15 K, 20370 kPa	872.33	852.13	832.97	811.43	796.96	781.01	763.03	746.2	731.08	714.96
318.15 K, 22390 kPa	873.95	853.71	834.6	813.06	798.59	782.65	764.67	747.82	732.69	716.55
318.15 K, 24420 kPa	875.54	855.32	836.2	814.65	800.17	784.23	766.24	749.39	734.25	718.09
318.15 K, 26450 kPa	877.12	856.9	837.77	816.23	801.75	785.8	767.8	750.95	735.8	719.69
318.15 K, 28470 kPa	878.67	858.45	839.34	817.78	803.29	787.34	769.34	752.48	737.32	721.17
318.15 K, 29490 kPa	879.43	859.22	840.08	818.54	804.05	788.09	770.08	753.23	738.07	721.87
318.15 K, 30500 kPa	880.19	859.99	840.84	819.31	804.81	788.85	770.85	753.99	738.83	722.64
318.15 K, 32530 kPa	881.7	861.5	842.34	820.8	806.31	790.33	772.31	755.45	740.27	724.08
318.15 K, 34550 kPa	883.17	862.97	843.8	822.26	807.75	791.8	773.76	756.87	741.69	725.5
318.15 K, 36580 kPa	884.63	864.41	845.26	823.71	809.2	793.22	775.19	758.28	743.11	726.91
318.15 K, 38600 kPa	886.04	865.86	846.68	825.13	810.6	794.61	776.59	759.68	744.49	728.26
318.15 K, 39620 kPa	886.76	866.55	847.39	825.83	811.31	795.32	777.27	760.4	745.19	–
